Laboratory results: patent publication US20260256792A1, “TREATMENT OF CHRONIC SPONTANEOUS URTICARIA BY ADMINISTERING (R)-2-[3-[4-AMINO-3-(2-FLUORO-4-PHENOXY-PHENYL)PYRAZOLO[3,4-D]PYRIMIDIN-1-YL]PIPERIDINE-1-CARBONYL]-4-METHYL-4-[4-(OXETAN-3-YL)PIPERAZIN-1-YL]PENT-2-ENENITRILE” (priority 2023, published 2026)

Test system: moderate-to-severe chronic spontaneous urticaria (CSU)
Test: Phase 2 CSU study: urticaria activity score over 7 days (UAS7)
Assay type: in vivo, human
Design: key to UAS7 Median / UAS7 Change from baseline Median / UAS7 change from baseline, Q1 / UAS7 change from baseline, Q3 / UAS7 change from baseline, Max / UAS7 Change from baseline LS Mean (SE): UAS7 points; daily UAS score ranges 0–6 points/day, over 7 days
Text: The study comprises a 12 week, randomized, double-blind, placebo-controlled, multi-center, dose-ranging efficacy and safety phase, followed by a 40 week open label extension (OLE) phase (see FIG. 1). The study consists of three phases and an optional OLE phase. […] Clinically, CSU is characterized by the spontaneous and recurrent appearance of pruritic hives. The proposed primary endpoints were the UAS7 at Week 12 in EU and EU reference countries and the ISS7 in the US. Regardless of where a participant was from, all assessments were the same. The UAS7 score is a composite score containing both the HSS7 and the ISS7. This allowed a global assessment of the two key components of urticaria: hives and itch. […] The UAS is a validated PRO measure. […] The daily UAS scores range from 0 to 6 point/day. […] Patients were to complete the UAS using the e-diary. […] The following secondary endpoints were to be analyzed using the same approach as for the primary endpoint: • Change from baseline in UAS7 at Week 4 • Change from baseline in UAS7 at Week 12 (for US and US reference countries) • Change from baseline in ISS7 at Week 12 (except US and US reference countries) • Change from baseline in HSS7 at Week 12 The following responder secondary endpoints were to be analyzed using the Cochran-Mantel-Haenszel test adjusted by region: • Proportion of participants with UAS7<6 at Week 12 • Proportion of participants with UAS7=0 at Week 12 Participants who received selected prohibited medications and/or rescue medications were to be considered as non-responders for time points after the medication usage. For other participants, all available data including those collected during the off-treatment period were to be used to determine the responder/non-responder status. Missing data were to be considered as non-responders.

[1] = Week 10, 400 mg TID, ITT population
[2] = Week 10, 400 mg TID, Omalizumab-Naïve
[3] = Week 10, 400 mg TID, Prior Omalizumab Use
[4] = Week 10, 400 mg TID, omalizumab-naive participants
[5] = Week 11, 400 mg BID, ITT population
[6] = Week 11, 400 mg BID, Omalizumab-Naïve
[7] = Week 11, 400 mg BID, Prior Omalizumab Use
[8] = Week 11, 400 mg BID, omalizumab-naive participants
[9] = Week 11, 400 mg QPM, ITT population
[10] = Week 11, 400 mg QPM, Omalizumab-Naïve
[11] = Week 11, 400 mg QPM, Prior Omalizumab Use
[12] = Week 11, 400 mg QPM, omalizumab-naive participants
[13] = Week 11, 400 mg TID, ITT population
[14] = Week 11, 400 mg TID, Omalizumab-Naïve

Structure (SMILES): CC(C)(C=C(C#N)C(=O)N1CCC[C@@H](n2nc(-c3ccc(Oc4ccccc4)cc3F)c3c(N)ncnc32)C1)N1CCN(C2COC2)CC1 [rilzabrutinib, (R)-2-[3-[4-amino-3-(2-fluoro-4-phenoxy-phenyl)pyrazolo[3,4-d]pyrimidin-1-yl]piperidine-1-carbonyl]-4-methyl-4-[4-(oxetan-3-yl)piperazin-1-yl]pent-2-enenitrile]
- Non-responder, UAS7 reduction from baseline of 10 points or more [1]: 14 (34.1) n (%)
- OR for rilzabrutinib vs. placebo, UAS7 reduction of 10 points or more [1]: 2.018
- RRD (%) for rilzabrutinib vs. placebo, UAS7 reduction of 10 points or more [1]: 15.7 %
- Responder, UAS7 reduction from baseline of 10 points or more [1]: 27 (65.9) n (%)
- UAS7 Change from baseline Median [2]: −20.00
- UAS7 Mean (SD) [2]: 12.61 (9.89)
- UAS7 Median [2]: 12.83
- UAS7 Percent change from baseline Mean (SD) [2]: −58.08 (31.82) %
- UAS7 Percent change from baseline Median [2]: −59.49%
- UAS7 Change from baseline Mean (SD) [3]: −25.19 (15.27)
- UAS7 Change from baseline Median [3]: −25.08
- UAS7 Mean (SD) [3]: 7.83 (11.43)
- UAS7 Median [3]: 4.00
- UAS7 Percent change from baseline Mean (SD) [3]: −73.42 (30.92) %
- UAS7 Percent change from baseline Median [3]: −84.09%
- Non-responder, UAS7 reduction from baseline of 10 points or more [4]: 12 (34.3) n (%)
- OR for rilzabrutinib vs. placebo, UAS7 reduction of 10 points or more [4]: 2.327
- RRD (%) for rilzabrutinib vs. placebo, UAS7 reduction of 10 points or more [4]: 19.8 %
- Responder, UAS7 reduction from baseline of 10 points or more [4]: 23 (65.7) n (%)
- Non-responder, UAS7 reduction from baseline of 10 points or more [5]: 19 (46.3) n (%)
- OR for rilzabrutinib vs. placebo, UAS7 reduction of 10 points or more [5]: 1.009
- RRD (%) for rilzabrutinib vs. placebo, UAS7 reduction of 10 points or more [5]: 0.2 %
- Responder, UAS7 reduction from baseline of 10 points or more [5]: 22 (53.7) n (%)
- UAS7 Change from baseline Mean (SD) [6]: −14.86 (11.83)
- UAS7 Change from baseline Median [6]: −19.00
- UAS7 Mean (SD) [6]: 15.06 (13.80)
- UAS7 Percent change from baseline Mean (SD) [6]: −51.82 (39.20) %
- UAS7 Percent change from baseline Median [6]: −57.14%
- UAS7 Change from baseline Mean (SD) [7]: −20.43 (19.00)
- UAS7 Change from baseline Median [7]: −25.00
- UAS7 Mean (SD) [7]: 11.57 (15.45)
- UAS7 Median [7]: 2.00
- UAS7 Percent change from baseline Mean (SD) [7]: −59.15 (51.57) %
- UAS7 Percent change from baseline Median [7]: −92.59%
- Non-responder, UAS7 reduction from baseline of 10 points or more [8]: 16 (45.7) n (%)
- OR for rilzabrutinib vs. placebo, UAS7 reduction of 10 points or more [8]: 1.183
- RRD (%) for rilzabrutinib vs. placebo, UAS7 reduction of 10 points or more [8]: 4.4 %
- Responder, UAS7 reduction from baseline of 10 points or more [8]: 19 (54.3) n (%)
- Non-responder, UAS7 reduction from baseline of 10 points or more [9]: 19 (50.0) n (%)
- OR for rilzabrutinib vs. placebo, UAS7 reduction of 10 points or more [9]: 0.945
- RRD (%) for rilzabrutinib vs. placebo, UAS7 reduction of 10 points or more [9]: −1.3 %
- Responder, UAS7 reduction from baseline of 10 points or more [9]: 19 (50.0) n (%)
- UAS7 Change from baseline Mean (SD) [10]: −11.28 (9.60)
- UAS7 Change from baseline Median [10]: −11.00
- UAS7 Mean (SD) [10]: 21.17 (11.16)
- UAS7 Median [10]: 20.00
- UAS7 Percent change from baseline Mean (SD) [10]: −35.34 (30.18) %
- UAS7 Percent change from baseline Median [10]: −34.19%
- UAS7 Change from baseline Mean (SD) [11]: −23.00 (NC)
- UAS7 Change from baseline Median [11]: −23.00
- UAS7 Mean (SD) [11]: 18.00 (NC)
- UAS7 Median [11]: 18.00
- UAS7 Percent change from baseline Mean (SD) [11]: −56.10 (NC) %
- UAS7 Percent change from baseline Median [11]: −56.10%
- Non-responder, UAS7 reduction from baseline of 10 points or more [12]: 19 (51.4) n (%)
- OR for rilzabrutinib vs. placebo, UAS7 reduction of 10 points or more [12]: 0.946
- RRD (%) for rilzabrutinib vs. placebo, UAS7 reduction of 10 points or more [12]: −1.3 %
- Responder, UAS7 reduction from baseline of 10 points or more [12]: 18 (48.6) n (%)
- Non-responder, UAS7 reduction from baseline of 10 points or more [13]: 14 (34.1) n (%)
- OR for rilzabrutinib vs. placebo, UAS7 reduction of 10 points or more [13]: 1.624
- RRD (%) for rilzabrutinib vs. placebo, UAS7 reduction of 10 points or more [13]: 10.3 %
- Responder, UAS7 reduction from baseline of 10 points or more [13]: 27 (65.9) n (%)
- UAS7 Change from baseline Median [14]: −17.00
- UAS7 Median [14]: 13.00
- UAS7 Percent change from baseline Mean (SD) [14]: −56.01 (34.22) %
- UAS7 Percent change from baseline Median [14]: −60.00%
